# Test results: US8394788B2, “Phenylsulfoxyoxazole compound inhibitors of urea transporters” (The Regents of the University of California, priority 2006, dated 2013)
# Tests used:
# mouse UT-B = molecular target: T1, mouse UT-B (Mus musculus, UniProt Q8VHL0); assay: Stopped-flow light scattering, mouse RBCs (N-methylurea gradient); assay type: cell-based
# T1 construct: the indicator cells are red blood cells that endogenously express the UT-B urea transporter; endogenous in cells; host or cells: mouse red blood cells (CD1 background; wild-type for A4, AQP1-null for A10)
# T1 sequence (Q8VHL0 1-384): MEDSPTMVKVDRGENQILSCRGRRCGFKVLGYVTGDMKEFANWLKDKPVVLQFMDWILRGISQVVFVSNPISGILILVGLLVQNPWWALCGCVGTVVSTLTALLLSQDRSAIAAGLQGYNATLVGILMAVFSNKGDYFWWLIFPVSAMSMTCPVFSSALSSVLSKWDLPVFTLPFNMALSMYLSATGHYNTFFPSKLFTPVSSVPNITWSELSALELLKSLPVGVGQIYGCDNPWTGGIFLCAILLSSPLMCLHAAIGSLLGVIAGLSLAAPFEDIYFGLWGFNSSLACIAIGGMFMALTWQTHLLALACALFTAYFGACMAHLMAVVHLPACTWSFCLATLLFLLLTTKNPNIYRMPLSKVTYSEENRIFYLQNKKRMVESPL
# Description: (§1) RBC urea and water permeabilities were assayed by stopped-flow light scattering using a Hi-Tech Sf-51 instrument (Wiltshire, UK). For measurement of urea permeability, dilutions of whole blood (human or mouse; see Example 1) in PBS (hematocrit: approximately 0.5%) were incubated with test compounds for 5 min and then subjected to a 250-mM inwardly directed gradient of urea. After an initial osmotic shrinking phase, the kinetics of increasing cell volume caused by urea influx were measured as the time-course of 90° scattered light intensity at 530 nm, with increasing cell volume resulting in reduced scattered light intensity. As a positive control, 0.7 mM phloretin was added to the RBC suspension prior to stopped-flow experiments. Measurements of water permeability were carried out similarly, with sucrose (cell-impermeant) used instead of urea to establish a 250-mM osmotic gradient. As a positive control, HgCl2 (0.3 mM) was added to the RBC suspension prior to stopped-flow measurements. Osmotic water permeability coefficients (Pf) were computed from light scattering data as described (van Hoek et al., J Biol. Chem. 267:18267-69 (1992)). […]
# UT-B [1] = molecular target: T2, UT-B (Mus musculus, UniProt Q8VHL0); assay: Osmotic water permeability, AQP1-null mouse RBCs (UT-B-facilitated water transport); assay type: cell-based; settings: 10° C., 250-mM sucrose gradient
# T2 construct: the indicator cells are red blood cells that endogenously express the UT-B urea transporter; endogenous in cells; host or cells: mouse red blood cells (CD1 background; wild-type for A4, AQP1-null for A10)
# T2 sequence (Q8VHL0 1-384): T1 sequence (Q8VHL0 1-384)
# Description: as §1, with “measurements.” for “measurements. Osmotic water permeability coefficients (Pf) were computed from light scattering data as described (van Hoek et al., J Biol. Chem. 267:18267-69 (1992)).”
# This example describes chemical knock-out of UT-B by UT-B inhibitors in RBCs and the effect on UT-B-facilitated water transport. […] Osmotic water permeability was measured by stopped-flow light scattering in RBCs from wild-type and AQP1-null mice as shown in FIG. 8A. […]
# RBCs from wild-type mice = assay: Osmotic water permeability, RBCs from wild-type mice (stopped-flow); assay type: cell-based, mouse; settings: 10° C., 250-mM sucrose gradient
# Description: (§2) RBC urea and water permeabilities were assayed by stopped-flow light scattering using a Hi-Tech Sf-51 instrument (Wiltshire, UK). For measurement of urea permeability, dilutions of whole blood (human or mouse; see Example 1) in PBS (hematocrit: approximately 0.5%) were incubated with test compounds for 5 min and then subjected to a 250-mM inwardly directed gradient of urea. After an initial osmotic shrinking phase, the kinetics of increasing cell volume caused by urea influx were measured as the time-course of 90° scattered light intensity at 530 nm, with increasing cell volume resulting in reduced scattered light intensity. As a positive control, 0.7 mM phloretin was added to the RBC suspension prior to stopped-flow experiments. Measurements of water permeability were carried out similarly, with sucrose (cell-impermeant) used instead of urea to establish a 250-mM osmotic gradient. As a positive control, HgCl2 (0.3 mM) was added to the RBC suspension prior to stopped-flow measurements. Osmotic water permeability coefficients (Pf) were computed from light scattering data as described (van Hoek et al., J Biol. Chem. 267:18267-69 (1992)).
# This example describes chemical knock-out of UT-B by UT-B inhibitors in RBCs and the effect on UT-B-facilitated water transport. […] Osmotic water permeability was measured by stopped-flow light scattering in RBCs from wild-type and AQP1-null mice as shown in FIG. 8A. […] AQP1-null RBCs had greater than 5-fold reduced Pf compared to wild-type RBCs.
# UT-B [2] = molecular target: T3, UT-B (Homo sapiens, UniProt Q13336); assay: Stopped-flow light scattering, urea permeability of human RBCs; assay type: cell-based; design: a red blood cell (i.e., erythrocyte), which endogenously expresses the urea transporter UT-B; endogenous in cells; host or cells: human red blood cells (whole blood, single donor); settings: for inhibition of urea transport, inhibitor only in urea-containing solution (sidedness): external exposure at time of stopped-flow, 0.1 μM ureainh-101, 0.2 μM ureainh-302; for reversibility of inhibition after washing RBCs: washed after 10 min incubation
# T3 sequence (Q13336 1-389): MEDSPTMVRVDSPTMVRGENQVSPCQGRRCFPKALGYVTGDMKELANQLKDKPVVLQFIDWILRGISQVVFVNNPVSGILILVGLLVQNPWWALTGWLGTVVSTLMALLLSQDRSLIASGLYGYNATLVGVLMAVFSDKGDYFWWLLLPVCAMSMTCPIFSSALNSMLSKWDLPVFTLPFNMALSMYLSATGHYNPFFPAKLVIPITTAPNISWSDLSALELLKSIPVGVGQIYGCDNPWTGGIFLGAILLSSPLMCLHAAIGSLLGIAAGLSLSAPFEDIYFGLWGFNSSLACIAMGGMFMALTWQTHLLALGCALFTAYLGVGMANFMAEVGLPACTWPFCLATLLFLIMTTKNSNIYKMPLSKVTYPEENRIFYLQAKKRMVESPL
# Description: as §2
# After repeating the 96-well plate RBC lysis assay to confirm compound activity (see Example 2), bona fide urea transport inhibition was determined by stopped-flow light scattering from the kinetics of urea influx (RBC swelling) in response to an inwardly directed urea gradient. Rapid mixing of an RBC suspension with a hyperosmolar solution containing excess 250 mM urea produced rapid cell shrinking due to osmotic water efflux, followed by cell swelling as urea (and water) influx occurred.
# To determine EC50 values for urea transport inhibition directly, RBC urea transport was measured by stopped-flow light scattering using a non-saturating concentration of extracellular urea (to avoid possible competition effects). EC50 for inhibition of RBC urea transport was determined independently by comparing stopped-flow light scattering curves to a model of cell shrinking-swelling.
# For stopped-flow experiments, a 100-mM gradient of urea (for human RBCs) or N-methylurea (for mouse RBCs) was used to minimize competition effects (apparent urea and N-methylurea affinities at 23° C. are approximately 200 and approximately 100 mM, respectively) (Mayrand et al., J Gen Physiol. 81:221-37 (1983)). N-methylurea, with greater than 2-fold slower RBC permeability than urea, was used in mouse studies to better resolve overlapping water and urea transport kinetics. Dose-response data were also collected for human RBCs using a high concentration of 1 M urea to distinguish between competitive vs. non-competitive inhibitor binding.
# The two coupled differential equations describing water efflux and solute influx in response to externally added urea or methylurea were numerically integrated using the forward Euler method (Δt=0.01 s) to reproduce the biphasic changes in cell volume observed experimentally. Computations that were performed using the smaller time step (Δt=0.001 s) gave similar results, confirming the adequacy of the 0.01 s time step. Water flux, Jv (in cm^3/s), across erythrocyte membranes is represented by the following equation: Jv=−Pf·S·vw·[(Ie−Ic(i))+(Ue−Uc(i))]; solute flux, Js (in mol/s), is represented by the following equation: Ps·S·(Ue−Uc(i)). Permeability coefficients (Pf and Ps) are expressed in units of cm/s, cell surface area (S) in cm^2, extracellular (e) and cellular (c) concentrations of impermeant (I) and urea/methylurea (U) solute in mol/cm^3, and vw is […]. Initial conditions were Ie=Ic(0)=2.9×10^−4 mol/cm^3, Ue=10^−4 mol/cm^3, and Uc(0)=0. […]
inhibitory potencies against mouse UT-B (mouse UT-B),effect on water permeability in AQP1-null RBCs (UT-B [1]),"inhibition at 0.1 µM (UT-B [2]; 10 min pre-incubation, 0.1 μM ureainh-101, 0.4 μM ureainh-302, read-out: transport inhibition after pre-incubation)","inhibition of urea transport, inhibitor only in urea-containing solution (sidedness) (UT-B [2])",reversibility of inhibition after washing RBCs (UT-B [2]),"concentration dependence of inhibition of urea permeability by externally added inhibitor (UT-B [2]; externally added, 0.05-0.2 μM)",Compound,effect on water transport in RBCs from wild-type mice (RBCs from wild-type mice)
good inhibitory potencies,further inhibited water permeability,> 95%,did not inhibit urea transport,fully reversible inhibition,–,"NC(=O)CSc1oc(-c2ccccc2)nc1S(=O)(=O)c1ccc(Br)cc1 [ureainh-101, 2-(4-(4-bromophenylsulfonyl)-2-phenyloxazol-5-ylthio)acetamide]",little effect
good inhibitory potencies,further inhibited water permeability,–,sizable effect,fully reversible inhibition,concentration-dependent,Cc1ccc(Nc2nnc(-c3ccc(C(N)=O)cc3)c3ccccc23)cc1 [ureainh-302],little effect
